The text below walks through data of ChEMBL document CHEMBL1156553, “Prenylated dihydrochalcones from Boronia bipinnata that inhibit the malarial parasite enzyme target hemoglobinase II” (J Nat Prod, 2008).

The test is described as follows: Inhibition of recombinant hemoglobinase 2.
For the compound `CC(C)CC(=O)N[C@H](C(=O)N[C@H](C(=O)N[C@@H](CC(C)C)[C@@H](O)CC(=O)N[C@@H](C)C(=O)N[C@@H](CC(C)C)[C@@H](O)CC(=O)O)C(C)C)C(C)C` [PEPSTATIN], the IC50 (usually the midpoint of a concentration-inhibition curve) stood at 0.003 µM. Next, `CC(C)=CCC/C(C)=C/Cc1cc(CCC(=O)c2c(O)cc(O)cc2O)ccc1O` [BIPINNATONE B]: 51 µM; `CC(C)=CCC/C(C)=C/CC/C(C)=C/Cc1cc(CCC(=O)c2c(O)cc(O)cc2O)ccc1O` [BIPINNATONE A]: 64 µM.
